Results filed as inconclusive are left out. The source made the active and inactive calls. No rule for the calls is given here.
Experiments:
[1] = dynein cargo transport inhibitors, potency, dose response, imaging, high-content imaging (AID 463136); conditions: HCS imaging, dynein-mediated cargo transport inhibition; inhibition at max concentration; at 50 µM; stronger effect = higher value;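 also: mouse mammary adenocarcinoma 3617.4 cells expressing GFP-tagged rat glucocorticoid receptor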; as to inhibition: reference of the scale not given here
[2] = tested on: HCS imaging, dynein-mediated cargo transport inhibition; assay: as above

CCCn1nc([N+](=O)[O-])c(C(C#N)c2nc3ccccc3s2)c(Cl)c1=O (stereo unspecified)
inhibition [1]: 97% | IC50 [2]: 14.6 µM

COc1ccc(NC(=O)/C(Cl)=C(/Cl)S(=O)Cc2ccc(C)cc2)cn1 (stereo unspecified)
inhibition [1]: 54.7% | IC50 [2]: 23.4 µM

O=C1NC(=O)N(c2ccccc2)C(=O)/C1=C/c1ccc([N+](=O)[O-])s1
inhibition [1]: 86.7% | IC50 [2]: 13.4 µM

COc1ccccc1NS(=O)(=O)c1cc([N+](=O)[O-])ccc1N/N=C/c1c[nH]c2ccccc12
inhibition [1]: 21.9% | IC50 [2]: > 50 µM (inactive)

O=C(CCl)N(c1ccccc1)c1ccccc1
inhibition [1]: 61.3% | IC50 [2]: 14.2 µM

CCOc1cc(C=C(C(=O)OC)C(=O)OC)ccc1OCc1ccc([N+](=O)[O-])cc1
inhibition [1]: 37.2% | IC50 [2]: > 50 µM (inactive)

Cn1cc([N+](=O)[O-])c(C(=O)Nc2cc(Oc3ccccc3)cc([N+](=O)[O-])c2)n1
inhibition [1]: 45.9% | IC50 [2]: > 50 µM (inactive)

O=C1C=C(c2ccc(Cl)cc2)C(=O)N1Nc1ccccc1
inhibition [1]: 75.7% | IC50 [2]: 39.3 µM

O=C(/C=C/c1ccncc1)c1ccc2c(c1)OCCO2
inhibition [1]: 72.4% | IC50 [2]: 17.1 µM

CCOC(=O)/C(=C\c1cccnc1)C(=O)c1cc(C(C)=O)c(Nc2ccccc2)s1
inhibition [1]: 80.4% | IC50 [2]: 9.84 µM

CCOC(=O)C1=C(SCC)c2cc3c(n2C1=O)CCCC3
inhibition [1]: 37.7% | IC50 [2]: > 50 µM (inactive)

CCOC(=O)c1c(-c2ccc(C)cc2)csc1NC(=O)/C(C#N)=C/c1ccc(O)c(OC)c1
inhibition [1]: 4.51% | IC50 [2]: > 50 µM (inactive)

C=CCN1C(=O)NC(=O)/C(=C/C=C/c2ccccc2)C1=O
inhibition [1]: -33.3% | IC50 [2]: > 50 µM (inactive)

CC1(C)COC(/C=C/c2cccc([N+](=O)[O-])c2)=N1
inhibition [1]: 88.6% | IC50 [2]: 10 µM

CCCCc1ccc(/C=C2\C(=O)c3ccccc3C(O)=C2C(=O)OCC)cc1
inhibition [1]: 15.5% | IC50 [2]: > 50 µM (inactive)

CCN1/C(=C/C=C/c2oc3ccc4ccccc4c3[n+]2CC)Oc2ccc3ccccc3c21
inhibition [1]: 96.7% | IC50 [2]: 2.51 µM

O=C(NC1CCCCC1)C(c1cccnc1)N(C(=O)CCl)c1ccc(F)cc1 (stereo unspecified)
inhibition [1]: 82.2% | IC50 [2]: 12.7 µM

N#C/C(=C\c1cccs1)C(=O)c1ccccc1Cl
inhibition [1]: 63.4% | IC50 [2]: > 50 µM (inactive)

O=[N+]([O-])c1ccc(-c2ccc(/C=N/Nc3nc(N4CCCCC4)nc(N4CCCCC4)n3)o2)cc1
inhibition [1]: 22.5% | IC50 [2]: > 50 µM (inactive)

Cc1ccc(CN=Cc2[nH]c3ccc(Br)c(Cl)c3c2O)cc1
inhibition [1]: 99.2% | IC50 [2]: 5.14 µM

CCCCNC1C(CC)C(CCC)C(C#N)(C#N)C1(C#N)C#N (stereo unspecified)
inhibition [1]: 75.2% | IC50 [2]: 21.7 µM

Cn1c(=O)c(NCCc2ccccc2)c2c3c(cccc31)C(=O)c1ccccc1-2
inhibition [1]: 19% | IC50 [2]: > 50 µM (inactive)

COC(CNC(=O)c1ccc2c3c(onc13)-c1ccccc1C2=O)OC
inhibition [1]: 99.6% | IC50 [2]: 29.3 µM

O=c1c(Cl)c(Cl)cnn1-c1ccccc1
inhibition [1]: 81.7% | IC50 [2]: 9.57 µM

CCOC(=O)c1c(NC(=O)CCl)sc(CN(C)C)c1-c1ccccc1
inhibition [1]: 74.1% | IC50 [2]: 29.9 µM

Cc1cc(C)cc(Cn2ncc(Cl)c(Cl)c2=O)c1
inhibition [1]: 63.9% | IC50 [2]: 22.7 µM

O=C(NC1CCCC1)C(c1ccc(F)cc1)N(Cc1ccc(F)cc1)C(=O)CCl (stereo unspecified)
inhibition [1]: 73.1% | IC50 [2]: 38.5 µM

Clc1ccc(-c2nnc(Sc3nc4ccccc4o3)c3ccccc23)cc1
inhibition [1]: 83% | IC50 [2]: 39.3 µM

CN(C)CC(C(=O)c1ccccc1)c1ccccc1 (stereo unspecified)
inhibition [1]: 70.5% | IC50 [2]: 8.37 µM

Cc1cc(C(=O)CCl)c(C)n1-c1ccon1
inhibition [1]: 61.3% | IC50 [2]: 11.8 µM

CCOC(=O)c1c(NC(=O)/C=C/C(=O)O)sc(C)c1-c1ccc(Cl)cc1
inhibition [1]: 93.3% | IC50 [2]: 9.7 µM

Cc1cc(C)nc(S/C=C/C(=O)c2ccccc2F)n1
inhibition [1]: 83.3% | IC50 [2]: 19.3 µM

COc1cc(/C=C2\COC/C(=C\c3ccc(O)c(OC)c3)C2=O)ccc1O
inhibition [1]: 64.3% | IC50 [2]: 39.7 µM
